Reference: US5648333A, “Peptides having bradykinin antagonist action” (Hoechst Aktiengesellschaft, priority 1988, dated 1997)
Where a SMILES comes first, the peptide text is derived from it. [ ]: non-standard residue; d: D form. Oic = O=C(O)[C@@H]1C[C@@H]2CCCC[C@@H]2N1; Hyp = O=C(O)[C@@H]1C[C@@H](O)CN1; dTic = O=C(O)[C@H]1Cc2ccccc2CN1

Molecular target: T1, isolated pulmonary artery of the guinea pig (Cavia porcellus, UniProt O70526)
T1 sequence (O70526 1-372): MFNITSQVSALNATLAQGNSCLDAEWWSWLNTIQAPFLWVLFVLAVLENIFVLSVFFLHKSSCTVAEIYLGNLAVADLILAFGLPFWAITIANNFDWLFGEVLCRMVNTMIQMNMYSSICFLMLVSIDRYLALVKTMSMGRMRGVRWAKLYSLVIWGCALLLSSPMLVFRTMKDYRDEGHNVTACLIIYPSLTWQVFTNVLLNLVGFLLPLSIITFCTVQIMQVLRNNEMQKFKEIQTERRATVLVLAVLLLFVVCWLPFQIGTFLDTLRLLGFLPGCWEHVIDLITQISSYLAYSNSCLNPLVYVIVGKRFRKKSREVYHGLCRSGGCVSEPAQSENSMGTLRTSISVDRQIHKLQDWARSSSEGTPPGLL
Assay: bradykinin antagonist action on the isolated arteria pulmonalis of the guinea pig (decrease of bradykinin-induced contraction)
Procedure: For testing the peptides according to the invention on the isolated arteria pulmonalis, guinea pigs (Dunkin Hartley) having a weight of 400-450 g are sacrificed by a blow to the back of the neck.
The thorax is opened and the arteria pulmonalis is carefully dissected out. The surrounding tissue is carefully removed and the arteria pulmonalis is cut spirally at an angle of 45°.
The vessel strip of 2.5 cm length and 3-4 mm width is fixed in a 10 ml capacity organ bath which is filled with Ringer solution.
95% O2 and 5% CO2 is bubbled through the solution, which is warmed to 37° C. The pH is 7.4 and the preload on the vessel strip is 1.0 g.
The isotonic contraction changes are detected using a lever arrangement and an HF modem (position sensor) from Hugo Sachs and recorded on a compensating recorder (BEC, Goerz Metrawatt SE 460).
After equilibration for 1 hour, the experiment is begun.
For the detection of a partial agonistic effect, the peptides are used in the doses 1×10^-5 -1×10^-3 mol/l.

[1] = Table 1, vessel strip contracted with 2×10^-7 mol/l of bradykinin, peptides act 10 minutes, calculated from dose-effect curves

| IC50 [1] [nM] | Structure (SMILES) | IC50 (table by Example No., test not named there, values coincide with Table 1) [nM] |
| --- | --- | --- |
|  | N=C(N)NCCC[C@@H](N)C(=O)N[C@@H](CCCNC(=N)N)C(=O)N1CCC[C@H]1C(=O)N1C[C@H](O)C[C@H]1C(=O)NCC(=O)N[C@@H](Cc1cccs1)C(=O)N[C@@H](CO)C(=O)N1Cc2ccccc2C[C@@H]1C(=O)N1[C@H](C(=O)N[C@@H](CCCNC(=N)N)C(=O)O)C[C@@H]2CCCC[C@@H]21 [Example 59, H-(D)-Arg-Arg-Pro-Hyp-Gly-Thia-Ser-(D)-Tic-Oic-Arg-OH] | 5.4 |
| 5.9 | CC(C)C[C@H](NC(=O)CNC(=O)[C@@H]1C[C@@H](O)CN1C(=O)[C@@H]1CCCN1C(=O)[C@H](CCCNC(=N)N)NC(=O)[C@H](N)CCCNC(=N)N)C(=O)N[C@@H](CO)C(=O)N1Cc2ccccc2C[C@@H]1C(=O)N1[C@H](C(=O)N[C@@H](CCCNC(=N)N)C(=O)O)C[C@@H]2CCCC[C@@H]21 [Example 199, H-(D)-Arg-Arg-Pro-Hyp-Gly-Leu-Ser-(D)-Tic-Oic-Arg-OH] (H-[dR]RP[Hyp]GLS[dTic][Oic]R-OH) |  |
| 37 | N=C(N)NCCC[C@@H](N)C(=O)N[C@@H](CCCNC(=N)N)C(=O)N1CCC[C@H]1C(=O)N1C[C@H](O)C[C@H]1C(=O)NCC(=O)N[C@@H](CC1CCCCC1)C(=O)N[C@@H](CO)C(=O)N1Cc2ccccc2C[C@@H]1C(=O)N1[C@H](C(=O)N[C@@H](CCCNC(=N)N)C(=O)O)C[C@@H]2CCCC[C@@H]21 [Example 200, H-(D)-Arg-Arg-Pro-Hyp-Gly-Cha-Ser-(D)-Tic-Oic-Arg-OH] |  |
| 6000 | CC(C)(C)[C@H](NC(=O)CNC(=O)[C@@H]1C[C@@H](O)CN1C(=O)[C@@H]1CCCN1C(=O)[C@H](CCCNC(=N)N)NC(=O)[C@H](N)CCCNC(=N)N)C(=O)N[C@@H](CO)C(=O)N1Cc2ccccc2C[C@@H]1C(=O)N1[C@H](C(=O)N[C@@H](CCCNC(=N)N)C(=O)O)C[C@@H]2CCCC[C@@H]21 [Example 201, H-(D)-Arg-Arg-Pro-Hyp-Gly-Tbg-Ser-(D)-Tic-Oic-Arg-OH] |  |
